How the values were obtained:
[1] = biological target: Serine/threonine-protein kinase PAK 4 (Homo sapiens) (UniProt O96013); settings: Compound concentration 1000.0 nM
[2] = biological target: Serine/threonine-protein kinase pim-1 (Homo sapiens) (UniProt P11309); settings: Compound concentration 1000.0 nM
[3] = biological target: Tyrosine-protein kinase JAK1 (Homo sapiens) (UniProt P23458); settings: Compound concentration 1000.0 nM
[4] = biological target: Protein-tyrosine kinase 2-beta (Homo sapiens) (UniProt Q14289); settings: Compound concentration 1000.0 nM
[5] = biological target: Tyrosine-protein kinase ABL1 (Homo sapiens) (UniProt P00519); settings: Compound concentration 1000.0 nM
[6] = biological target: Phosphorylase b kinase regulatory subunit alpha, liver isoform (Homo sapiens) (UniProt P46019); settings: Compound concentration 1000.0 nM
[7] = biological target: Ephrin type-B receptor 2 (Homo sapiens) (UniProt P29323); settings: Compound concentration 1000.0 nM
[8] = biological target: cAMP-dependent protein kinase catalytic subunit beta (Homo sapiens) (UniProt P22694); settings: Compound concentration 1000.0 nM
[9] = biological target: Calcium/calmodulin-dependent protein kinase type II subunit alpha (Homo sapiens) (UniProt Q9UQM7); settings: Compound concentration 1000.0 nM
Chain of Calcium/calmodulin-dependent protein kinase type II subunit alpha (Homo sapiens) (Q9UQM7 whole entry): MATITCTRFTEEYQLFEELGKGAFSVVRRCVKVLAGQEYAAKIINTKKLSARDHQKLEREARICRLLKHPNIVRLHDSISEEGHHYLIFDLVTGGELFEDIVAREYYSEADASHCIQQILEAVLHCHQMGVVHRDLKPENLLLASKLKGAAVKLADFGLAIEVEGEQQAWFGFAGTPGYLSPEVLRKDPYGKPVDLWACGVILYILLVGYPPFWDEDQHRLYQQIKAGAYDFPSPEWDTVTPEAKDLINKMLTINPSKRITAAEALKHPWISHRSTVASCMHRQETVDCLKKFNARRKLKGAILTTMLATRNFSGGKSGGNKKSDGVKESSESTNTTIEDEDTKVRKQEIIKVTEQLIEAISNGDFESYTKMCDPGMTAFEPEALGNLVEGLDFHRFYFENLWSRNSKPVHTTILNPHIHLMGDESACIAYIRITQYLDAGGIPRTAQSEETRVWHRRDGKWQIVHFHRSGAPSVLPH

[10] = biological target: Calcium/calmodulin-dependent protein kinase type 1D (Homo sapiens) (UniProt Q8IU85); settings: Compound concentration 1000.0 nM
Chain of Calcium/calmodulin-dependent protein kinase type 1D (Homo sapiens) (Q8IU85 whole entry, looked up): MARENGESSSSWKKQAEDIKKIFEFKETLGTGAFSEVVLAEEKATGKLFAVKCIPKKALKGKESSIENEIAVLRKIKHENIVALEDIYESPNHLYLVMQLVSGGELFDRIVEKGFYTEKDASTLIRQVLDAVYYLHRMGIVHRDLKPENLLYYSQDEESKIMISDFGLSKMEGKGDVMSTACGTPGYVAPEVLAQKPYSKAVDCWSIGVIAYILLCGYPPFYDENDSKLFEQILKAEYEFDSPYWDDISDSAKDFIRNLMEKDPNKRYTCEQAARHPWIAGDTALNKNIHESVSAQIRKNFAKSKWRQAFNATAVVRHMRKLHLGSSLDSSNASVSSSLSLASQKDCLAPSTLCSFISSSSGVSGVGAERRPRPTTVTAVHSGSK

[11] = biological target: Serine/threonine-protein kinase tousled-like 2 (Homo sapiens) (UniProt Q86UE8); settings: Compound concentration 1000.0 nM
[12] = biological target: Calcium/calmodulin-dependent protein kinase kinase 2 (Homo sapiens) (UniProt Q96RR4); settings: Compound concentration 1000.0 nM
[13] = biological target: Tyrosine-protein kinase Blk (Homo sapiens) (UniProt P51451); settings: Compound concentration 1000.0 nM
[14] = test system: Receptor-type tyrosine-protein kinase FLT3 (Homo sapiens), P36888 [K663Q]; settings: Compound concentration 1000.0 nM
[15] = biological target: Serine/threonine-protein kinase ULK2 (Homo sapiens) (UniProt Q8IYT8); settings: Compound concentration 1000.0 nM
[16] = biological target: Interleukin-1 receptor-associated kinase 4 (Homo sapiens) (UniProt Q9NWZ3); settings: Compound concentration 1000.0 nM
[17] = biological target: Serine/threonine-protein kinase Nek7 (Homo sapiens) (UniProt Q8TDX7); settings: Compound concentration 1000.0 nM
Chain of Serine/threonine-protein kinase Nek7 (Homo sapiens) (Q8TDX7 whole entry, looked up): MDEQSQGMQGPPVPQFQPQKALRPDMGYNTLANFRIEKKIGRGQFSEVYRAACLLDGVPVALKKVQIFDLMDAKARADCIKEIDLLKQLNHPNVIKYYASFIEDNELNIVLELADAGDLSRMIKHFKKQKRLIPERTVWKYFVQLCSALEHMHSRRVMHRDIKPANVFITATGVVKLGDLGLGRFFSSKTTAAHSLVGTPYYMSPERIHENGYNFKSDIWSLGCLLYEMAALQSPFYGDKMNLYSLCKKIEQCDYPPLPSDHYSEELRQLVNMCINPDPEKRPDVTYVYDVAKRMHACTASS

[18] = test system: Mast/stem cell growth factor receptor Kit (Homo sapiens), P10721 [D816H]; settings: Compound concentration 1000.0 nM
[19] = biological target: Serine/threonine-protein kinase/endoribonuclease IRE1 (Homo sapiens) (UniProt O75460); settings: Compound concentration 1000.0 nM
Chain of Serine/threonine-protein kinase/endoribonuclease IRE1 (Homo sapiens) (O75460 19-977 limits assumed): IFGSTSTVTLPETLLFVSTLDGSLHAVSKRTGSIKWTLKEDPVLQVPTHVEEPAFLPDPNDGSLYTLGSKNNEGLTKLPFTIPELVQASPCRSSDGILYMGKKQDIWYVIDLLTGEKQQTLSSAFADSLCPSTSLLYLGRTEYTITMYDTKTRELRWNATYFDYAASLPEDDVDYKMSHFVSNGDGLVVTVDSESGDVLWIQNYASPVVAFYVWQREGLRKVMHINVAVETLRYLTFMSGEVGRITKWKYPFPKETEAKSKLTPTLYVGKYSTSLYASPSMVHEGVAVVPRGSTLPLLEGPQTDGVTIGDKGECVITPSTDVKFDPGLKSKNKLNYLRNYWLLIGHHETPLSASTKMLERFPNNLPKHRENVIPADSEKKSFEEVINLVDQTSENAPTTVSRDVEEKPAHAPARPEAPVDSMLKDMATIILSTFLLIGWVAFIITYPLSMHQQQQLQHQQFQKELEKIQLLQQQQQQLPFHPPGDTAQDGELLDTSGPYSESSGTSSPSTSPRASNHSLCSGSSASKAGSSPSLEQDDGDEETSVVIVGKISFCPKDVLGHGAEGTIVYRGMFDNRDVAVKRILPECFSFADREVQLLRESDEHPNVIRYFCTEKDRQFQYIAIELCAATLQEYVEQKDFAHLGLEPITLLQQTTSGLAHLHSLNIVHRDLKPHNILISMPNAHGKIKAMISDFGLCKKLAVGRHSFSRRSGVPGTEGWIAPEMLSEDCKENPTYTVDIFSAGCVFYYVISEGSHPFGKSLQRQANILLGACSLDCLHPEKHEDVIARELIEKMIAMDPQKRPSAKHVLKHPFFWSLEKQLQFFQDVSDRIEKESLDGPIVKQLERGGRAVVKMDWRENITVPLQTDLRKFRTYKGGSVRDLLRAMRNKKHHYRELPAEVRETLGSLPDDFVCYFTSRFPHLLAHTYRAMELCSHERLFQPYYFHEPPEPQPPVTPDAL

[20] = biological target: Casein kinase I isoform gamma-1 (Homo sapiens) (UniProt Q9HCP0); settings: Compound concentration 1000.0 nM
[21] = biological target: Mitogen-activated protein kinase kinase kinase 1 (Homo sapiens) (UniProt Q13233); settings: Compound concentration 1000.0 nM
[22] = test system: Epidermal growth factor receptor (Homo sapiens), P00533 [G719S]; settings: Compound concentration 1000.0 nM
[23] = biological target: Cyclin-dependent kinase 14 (Homo sapiens) (UniProt O94921); settings: Compound concentration 1000.0 nM
[24] = biological target: Tyrosine-protein kinase Lyn (Homo sapiens) (UniProt P07948); settings: Compound concentration 1000.0 nM
Chain of Tyrosine-protein kinase Lyn (Homo sapiens) (P07948 2-512 limits assumed): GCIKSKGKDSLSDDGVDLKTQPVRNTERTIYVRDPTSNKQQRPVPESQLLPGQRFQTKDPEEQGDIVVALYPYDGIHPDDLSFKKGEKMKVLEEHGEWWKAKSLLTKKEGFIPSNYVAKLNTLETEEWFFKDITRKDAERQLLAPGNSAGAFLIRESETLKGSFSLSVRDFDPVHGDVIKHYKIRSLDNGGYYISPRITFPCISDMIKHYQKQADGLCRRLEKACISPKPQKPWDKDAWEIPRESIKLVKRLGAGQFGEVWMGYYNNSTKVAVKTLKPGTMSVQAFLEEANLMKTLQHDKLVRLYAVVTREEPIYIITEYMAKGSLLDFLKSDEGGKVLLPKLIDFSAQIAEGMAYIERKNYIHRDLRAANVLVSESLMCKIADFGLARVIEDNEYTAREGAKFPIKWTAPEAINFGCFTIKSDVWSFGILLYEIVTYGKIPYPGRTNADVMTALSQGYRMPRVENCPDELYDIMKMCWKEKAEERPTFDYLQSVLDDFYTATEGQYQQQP

[25] = test system: Proto-oncogene tyrosine-protein kinase receptor Ret (Homo sapiens), P07949 [V804M]; settings: Compound concentration 1000.0 nM
[26] = biological target: 5-hydroxytryptamine receptor 2C (Homo sapiens) (UniProt P28335); settings: Compound concentration 10.0 uM
[27] = biological target: Mitogen-activated protein kinase 9 (Homo sapiens) (UniProt P45984); settings: Compound concentration 1000.0 nM
Chain of Mitogen-activated protein kinase 9 (Homo sapiens) (P45984 whole entry, looked up): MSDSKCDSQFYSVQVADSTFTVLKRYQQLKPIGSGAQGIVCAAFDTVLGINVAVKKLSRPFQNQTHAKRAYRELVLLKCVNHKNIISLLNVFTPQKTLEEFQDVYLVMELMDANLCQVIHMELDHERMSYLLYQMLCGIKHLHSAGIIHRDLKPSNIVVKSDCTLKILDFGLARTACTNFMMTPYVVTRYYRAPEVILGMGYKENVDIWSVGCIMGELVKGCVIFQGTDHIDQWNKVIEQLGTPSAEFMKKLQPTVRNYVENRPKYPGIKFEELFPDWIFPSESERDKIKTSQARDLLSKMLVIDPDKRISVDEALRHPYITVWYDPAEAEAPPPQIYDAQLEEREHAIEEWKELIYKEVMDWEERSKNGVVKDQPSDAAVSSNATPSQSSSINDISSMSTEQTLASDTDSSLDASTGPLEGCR

[28] = test system: Fibroblast growth factor receptor 3 (Homo sapiens), P22607 [G697C]; settings: Compound concentration 1000.0 nM
[29] = biological target: Tyrosine-protein kinase BTK (Homo sapiens) (UniProt Q06187); settings: Compound concentration 1000.0 nM
Chain of Tyrosine-protein kinase BTK (Homo sapiens) (Q06187 whole entry): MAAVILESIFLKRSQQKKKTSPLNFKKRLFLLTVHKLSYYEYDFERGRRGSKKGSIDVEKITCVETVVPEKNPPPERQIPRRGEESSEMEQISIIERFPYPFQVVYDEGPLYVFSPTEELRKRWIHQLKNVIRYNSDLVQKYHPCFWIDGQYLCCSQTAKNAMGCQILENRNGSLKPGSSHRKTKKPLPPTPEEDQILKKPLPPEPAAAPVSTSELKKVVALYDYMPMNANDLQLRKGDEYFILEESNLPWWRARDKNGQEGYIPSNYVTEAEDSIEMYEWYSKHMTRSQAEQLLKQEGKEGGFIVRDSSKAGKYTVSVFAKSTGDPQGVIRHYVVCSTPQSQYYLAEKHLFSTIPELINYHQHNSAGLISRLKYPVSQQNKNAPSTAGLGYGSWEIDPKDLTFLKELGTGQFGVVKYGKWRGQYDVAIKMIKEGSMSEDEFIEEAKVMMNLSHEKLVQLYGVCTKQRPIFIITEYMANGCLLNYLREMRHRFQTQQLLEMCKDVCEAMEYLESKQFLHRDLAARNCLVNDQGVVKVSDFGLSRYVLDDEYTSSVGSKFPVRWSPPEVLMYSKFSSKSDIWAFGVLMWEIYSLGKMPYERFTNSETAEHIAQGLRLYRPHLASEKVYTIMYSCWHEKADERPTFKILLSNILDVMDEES

[30] = biological target: cGMP-dependent protein kinase 2 (Homo sapiens) (UniProt Q13237); settings: Compound concentration 1000.0 nM
[31] = biological target: Discoidin domain-containing receptor 2 (Homo sapiens) (UniProt Q16832); settings: Compound concentration 1000.0 nM
[32] = biological target: Homeodomain-interacting protein kinase 3 (Homo sapiens) (UniProt Q9H422); settings: Compound concentration 1000.0 nM
[33] = biological target: Serine/threonine-protein kinase PRP4 homolog (Homo sapiens) (UniProt Q13523); settings: Compound concentration 1000.0 nM
[34] = biological target: Interferon-induced, double-stranded RNA-activated protein kinase (Homo sapiens) (UniProt P19525); settings: Compound concentration 1000.0 nM
[35] = biological target: 5-hydroxytryptamine receptor 7 (Homo sapiens) (UniProt P34969); settings: Compound concentration 10.0 uM
Chain of 5-hydroxytryptamine receptor 7 (Homo sapiens) (P34969 whole entry): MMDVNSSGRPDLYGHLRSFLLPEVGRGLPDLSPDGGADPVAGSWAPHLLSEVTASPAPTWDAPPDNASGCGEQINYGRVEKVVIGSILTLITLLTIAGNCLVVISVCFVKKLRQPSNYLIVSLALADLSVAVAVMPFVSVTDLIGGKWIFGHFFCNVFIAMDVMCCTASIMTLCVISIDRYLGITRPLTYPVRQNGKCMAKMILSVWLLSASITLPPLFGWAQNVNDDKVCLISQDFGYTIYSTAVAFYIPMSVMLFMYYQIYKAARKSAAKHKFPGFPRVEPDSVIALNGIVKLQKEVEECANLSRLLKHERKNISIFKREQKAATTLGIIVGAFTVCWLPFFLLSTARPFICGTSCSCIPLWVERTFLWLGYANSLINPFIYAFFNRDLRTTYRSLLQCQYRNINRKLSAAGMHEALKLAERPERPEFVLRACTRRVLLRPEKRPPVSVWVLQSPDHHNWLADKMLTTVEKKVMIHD

[36] = biological target: Mast/stem cell growth factor receptor Kit (Homo sapiens) (UniProt P10721); settings: Compound concentration 1000.0 nM
[37] = biological target: MAP kinase-interacting serine/threonine-protein kinase 2 (Homo sapiens) (UniProt Q9HBH9); settings: Compound concentration 1000.0 nM
Chain of MAP kinase-interacting serine/threonine-protein kinase 2 (Homo sapiens) (Q9HBH9 whole entry, looked up): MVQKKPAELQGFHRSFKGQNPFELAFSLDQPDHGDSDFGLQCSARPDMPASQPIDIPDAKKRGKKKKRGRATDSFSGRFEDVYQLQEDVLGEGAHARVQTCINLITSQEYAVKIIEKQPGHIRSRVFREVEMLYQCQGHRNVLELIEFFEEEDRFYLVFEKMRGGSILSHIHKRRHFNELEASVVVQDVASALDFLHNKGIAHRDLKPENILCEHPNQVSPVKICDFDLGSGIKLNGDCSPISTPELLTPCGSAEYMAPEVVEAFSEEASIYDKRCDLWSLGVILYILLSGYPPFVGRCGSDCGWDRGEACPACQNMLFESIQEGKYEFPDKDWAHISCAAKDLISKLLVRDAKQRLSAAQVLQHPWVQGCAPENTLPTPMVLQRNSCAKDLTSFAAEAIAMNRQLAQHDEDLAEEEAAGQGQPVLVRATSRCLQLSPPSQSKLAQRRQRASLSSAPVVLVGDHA

[38] = biological target: Serine/threonine-protein kinase PAK 2 (Homo sapiens) (UniProt Q13177); settings: Compound concentration 1000.0 nM
[39] = biological target: cAMP-dependent protein kinase catalytic subunit PRKX (Homo sapiens) (UniProt P51817); settings: Compound concentration 1000.0 nM
[40] = biological target: D(1A) dopamine receptor (Homo sapiens) (UniProt P21728); settings: Compound concentration 10.0 uM
[41] = biological target: Mitogen-activated protein kinase kinase kinase 11 (Homo sapiens) (UniProt Q16584); settings: Compound concentration 1000.0 nM
[42] = biological target: cGMP-dependent protein kinase 1 (Homo sapiens) (UniProt Q13976); settings: Compound concentration 1000.0 nM
[43] = biological target: TGF-beta receptor type-1 (Homo sapiens) (UniProt P36897); settings: Compound concentration 1000.0 nM
[44] = biological target: Serine/threonine-protein kinase PAK 5 (Homo sapiens) (UniProt Q9P286); settings: Compound concentration 1000.0 nM
[45] = biological target: Casein kinase I isoform epsilon (Homo sapiens) (UniProt P49674); settings: Compound concentration 1000.0 nM

Chain of Serine/threonine-protein kinase pim-1 (Homo sapiens) (P11309 whole entry, looked up): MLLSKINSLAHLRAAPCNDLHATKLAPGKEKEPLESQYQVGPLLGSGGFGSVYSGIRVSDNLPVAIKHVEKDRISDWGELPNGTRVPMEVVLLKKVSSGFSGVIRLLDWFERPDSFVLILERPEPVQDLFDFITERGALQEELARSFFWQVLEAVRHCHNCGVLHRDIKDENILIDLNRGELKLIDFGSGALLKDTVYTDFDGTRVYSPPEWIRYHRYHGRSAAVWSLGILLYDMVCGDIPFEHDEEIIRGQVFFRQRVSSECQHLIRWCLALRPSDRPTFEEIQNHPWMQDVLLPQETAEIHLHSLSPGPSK

C[C@H](c1ccc(F)cc1)N(Cc1cccc(C(=O)O)c1)C(=O)c1cnc2ccccc2c1 [PF-05105679]
inactive: residual activity [1] 100% | residual activity [2] 100% | residual activity [3] 100% | residual activity [4] 100% | residual activity [5] 76% | residual activity [6] 100% | residual activity [7] 96% | residual activity [8] 82% | residual activity [9] 97% | residual activity [10] 100% | residual activity [11] 97% | residual activity [12] 95% | residual activity [13] 88% | residual activity [14] 100% | residual activity [15] 81% | residual activity [16] 95% | residual activity [17] 100% | residual activity [18] 100% | residual activity [19] 78% | residual activity [20] 91% | residual activity [21] 100% | residual activity [22] 100% | residual activity [23] 100% | residual activity [24] 100% | residual activity [25] 100% | inhibition [26] 6.54% | residual activity [27] 81% | residual activity [28] 100% | residual activity [29] 95% | residual activity [30] 100% | residual activity [31] 96% | residual activity [32] 100% | residual activity [33] 100% | residual activity [34] 100% | inhibition [35] -2.7% | residual activity [36] 100% | residual activity [37] 74% | residual activity [38] 100% | residual activity [39] 100% | inhibition [40] -0.79% | residual activity [41] 100% | residual activity [42] 100% | residual activity [43] 96% | residual activity [44] 93% | residual activity [45] 100%
